Test results taken from ChEMBL document CHEMBL1145875, “Xylylated dimers of putrescine and polyamines: influence of the polyamine backbone on spermidine transport inhibition” (Bioorg Med Chem Lett, 2003).

test system: T47D; test: (§1) Inhibition of spermidine transport determined in T-47D human breast cancer cells; assay type: functional, cell-based

Row | SMILES | Km [µM]
1 | NCCCCNCCCN | 4.4

biological target: T47D; test: as §1; assay type: functional, cell-based

Row | SMILES | Ki [µM]
2 | NCCCNCCCN [NORSPERMIDINE] | 9.5
3 | NCCCCNCCCCN | 2.7
4 | NCCCCCN(CCCCCN)Cc1ccc(CN(CCCCCN)CCCCCN)cc1 | 2.8
5 | NCCCCCCN(CCCCCCN)Cc1ccc(CN(CCCCCCN)CCCCCCN)cc1 | 9.4
6 | NCCC(CN)NCc1ccc(CNC(CN)CCN)cc1 (stereo not drawn) | 9.3
7 | NCCCCN(CCCCN)Cc1ccc(CN(CCCCN)CCCCN)cc1 | 2.8
8 | NCCC(CN)OCc1ccc(COC(CN)CCN)cc1 (stereo not drawn) | 12.8
9 | NCCCCCCNCCCCCCN | 20.9

Now from value to compound:

Row | Ki [µM] | SMILES
10 | 3.4 | NCCCCCNCCCCCN
11 | > 500 | NCCCCN [PUTRESCINE]
12 | 1.1 | NCCCNCCCCN(CCCN)Cc1ccc(CN(CCCN)CCCCNCCCN)cc1
13 | 2.1 | NCCCNCCCCNCCCN [SPERMINE]
